Laboratory results as given in US10597430B2, “Chimeric gene for heterologous expression which encodes for peptides with antimicrobial activity” (Instituto de Investigaciones Agropecuarias, priority 2013, dated 2020).

Key:
Assay type in all cases: cell-based
Botrytis cinerea = test: Antifungal growth assay on PDA agar supplemented with peptide (spore count, mycelium area); conditions: respectively
Method: (§1) a) Evaluation of Peptides obtained in E coli: Isolates from Botrytis cinerea, Fusarium oxysporum, Trichoderma harzianum and Alternaria spp. were treated with the purified fractions of the digested and non-digested peptides (pre-TEV/rAp-S and rAp-S) derived from the selected recombinant clone of E. coli (Example 3).
(§2) The potential antifungal abilities of both peptides were evaluated by analysis of the growth patterns of these fungi on agar PDA (potato-dextrose) in Petri dishes supplemented with protein extracts at 500 μg/L (162 nM) and 250 μg/L (81 nM), respectively.
(§3) The control growth assays were performed on PDA dishes without peptides. The growth patterns were evaluated according the amount of time required for the fungi to reach the dish walls in the control plates (10 days after inoculation in darkness at room temperature). Structural images of the fungi hyphae patterns were obtained using a Olympus® microscope (Center Valley, Pa., USA), and spores were counted using a Neubauer […] (Brand®, Wertheim, Germany) at 40×. The data were subjected to analyses of variance, and averages were separated by the least significant difference test (LSD) at the 5% level of significance using Statgraphics Centurion XV (Manμistics Inc., Rockville, Md., USA). Petri dishes containing grown fungi were scanned and digitalized for statistical processing. The area of the mycelia was quantified using Gel-Pro Analyzer 4.0 (Media Cybernetics, Minneapolis, Minn., USA), and surface values in pixels were transferred to Excel (Microsoft Corporation, USA) for analysis. The average value of the colored haloes was calculated using scanned images of five repetitions on the tenth day after inoculation. The collected data were subjected to variance analysis, and the averages separated by LSD at the 5% level of significance.

Fusarium oxysporum = test: as above; conditions: respectively
Method: as §1, §2, §3

Trichoderma harzianum = test: as above; conditions: respectively
Method: as §1, §2, §3

Alternaria sp = test: as above; conditions: respectively
Method: as §1, §2, §3

[1] = tested on: Clavibacter michiganensis; test: Growth inhibition assay at different concentrations of peptide rAp-S (specific growth rate, OD600); conditions: control 0.072
Method: (§4) Growth Inhibition Assays at Different Concentrations of Peptide rAp-S: The inoculation of 5 mL of LB was performed with 100 μL of bacteria (Xanthomona campestris and Clavibacter michiganensis), followed by overnight culturing. The absorbance was quantified at OD600. Once the Abs was quantified, dilutions were made to obtain an Abs to inoculate each tube with the same concentration of bacteria with an initial OD600 of 0.04. Different peptide concentrations were used. A final volume of 10 mL in a 50 mL tube was used. In addition, a control without peptide was used for each bacterium. The kinetics of the process was followed for 8 h from time zero, determining the Abs every 2 h. The data were logarithmically transformed for the exponential phase of kinetics, and a linear regression was performed on the transformed data. The slope of the regression is the specific growth rate of the bacteria: μ (h^−1).

Xanthomona campestris = test: as above; conditions: control 0.385
Method: as §4

[2] = PDA supplemented with pre-TEV/rAp-S 500 μg/L (162 nM) and rAp-S 250 μg/L (81 nM), 10 days after inoculation
[3] = PDA supplemented with pre-TEV/rAp-S 500 μg/L and rAp-S 250 μg/L, tenth day after inoculation

Substance: rAp-S: recombinant version of antimicrobial peptide Ap-S, 31 amino acids MPVGIVIAPKKSPFTAKKPGPVLSGVKAGPG (SEQ ID No. 9), released by TEV protease digestion (listed as Argopecten purpuratus)
- Spore count, Average (Botrytis cinerea; [2]): 1.02 × 10^6
- Central area of the mycelium, Average (Botrytis cinerea; [3]): 170781 pixeles
- Spore count, Average (Fusarium oxysporum; [2]): 7.6 × 10^5
- Central area of the mycelium, Average (Fusarium oxysporum; [3]): 511699 pixeles
- Spore count, Average (Trichoderma harzianum; [2]): 5.0 × 10^6
- Central area of the mycelium, Average (Trichoderma harzianum; [3]): 85718 pixeles
- Spore count, Average (Alternaria sp; [2]): 0
- Central area of the mycelium, Average (Alternaria sp; [3]): 412403 pixeles
- Specific growth rate μ ([1]; peptide 1 μg/L): 0.070 h⁻¹
- Specific growth rate μ ([1]; peptide 10 μg/L): 0.069 h⁻¹
- Specific growth rate μ ([1]; peptide 100 μg/L): 0.075 h⁻¹
- Specific growth rate μ ([1]; peptide 1 mg/L): 0.069 h⁻¹
- Specific growth rate μ ([1]; peptide 2 mg/L): 0.069 h⁻¹
- Specific growth rate μ ([1]; peptide 3 mg/L): 0.073 h⁻¹
- Specific growth rate μ ([1]; peptide 4 mg/L): 0.066 h⁻¹
- Specific growth rate μ ([1]; peptide 12.5 mg/L): 0.009 h⁻¹
- Specific growth rate μ ([1]; peptide 15.5 mg/L): 0.003 h⁻¹
- Specific growth rate μ (Xanthomona campestris; peptide 1 μg/L): 0.371 h⁻¹
- Specific growth rate μ (Xanthomona campestris; peptide 10 μg/L): 0.375 h⁻¹
- Specific growth rate μ (Xanthomona campestris; peptide 100 μg/L): 0.386 h⁻¹
- Specific growth rate μ (Xanthomona campestris; peptide 1 mg/L): 0.329 h⁻¹
- Specific growth rate μ (Xanthomona campestris; peptide 2 mg/L): 0.015 h⁻¹
- Specific growth rate μ (Xanthomona campestris; peptide 3 mg/L): -0.012 h⁻¹
- Specific growth rate μ (Xanthomona campestris; peptide 4 mg/L): -0.019 h⁻¹
